Measured values taken from patent US4481201A, “Pharmaceutical composition containing N,N^3 -di-(β-bromopropionyl)-N^1,N^2 -dispirotripiperazinium dichloride” (Vsesojuzny Nauchno-Issledovatelsky Khimoko-Farmasevtichesky …, priority 1981, dated 1984).
Entries after “also recorded” stand apart in the source; their conditions may differ. Like-named read-outs stand apart in the source and are kept apart here.

Columns and labels:
[1] = test system: sarcoma 180; experiment: Growth of graft sarcoma 180 in mice; type: in vivo, noninbred white mice
Description: (§1) The antitumor activity has been studied on white rats weighing 110-130 g, as well as on white noninbred and inbred mice weighing 17-21 g with ligated tumors. The treatment is started 5-7 days transplanting of solid tumors and the following day after the transplanting of leukotic strains. Use has been made of the following transplantable strains of the tumors:
(2) noninbred white mice: sarcoma 180, sarcoma AK, sarcoma 37, carcinoma HK;
(§2) The compounds of the general formula (I), wherein X represents Cl^- (compound 1), Br^- (compound 2) are well-soluble in an isotonic solution of sodium chloride and they are administered intraperitoneally. The doses of the compounds have been calculated in mg per kg of the animal bodyweight.

[2] = test system: leukemia La; experiment: Life span of mice with transplantable leukemia La; type: in vivo, inbred mice; conditions: mice with transplantable leukemia La
Description: as §1
(§3) (3) inbred mice: leukemia La, leukemia L1210 and P-388.
(§4) The activity of compounds relative to leukosis has been assessed by the life span (It) of treated animals as compared to the control ones. It --index of suppression of leukosis development is calculated by the formula: [formula]

[3] = Toxicity on single and repeated administration to mice; type: in vivo; conditions: for Ik index of toxic effect cumulation: intraperitoneal administration; for LD50 / MTD: mouse, in vivo; for LD50: read-out: DL50 (average lethal dose); for MTD: read-out: MTD
Description: (3) acute toxicity of the compounds upon a single and repeated administration to white noninbred mice places into standard cages with 8 animals in each.
In the investigation of toxic properties of the compounds according to the present invention there has been determined the absolutely lethal dose (DL95), average lethal dose (DL50) and MTD. For compounds 1 and 2 there were determined DL95 and DL50 on healthy white mice with the body mass of 18-21 g at a single and repeated (once a day, daily for 7 days) intraperitoneal administration.

[4] = test system: sarcoma 536; experiment: Growth of graft sarcoma 536 in rats; type: in vivo; design: key to tumor growth suppression class, Sarcoma 536: +++: tumor growth suppression by 95-100%; ++: tumor growth suppression by 80-95%; +: tumor growth suppression by 60-80%; tumor growth suppression by 30-60%; 0: no effect; conditions: for tumor growth suppression class, Sarcoma 536: rats
Description: as §1
(§5) (1) rats: Ienssen's sarcoma, sarcoma 45, sarcoma M-1, sarcoma 536;
as §2

[5] = test system: sarcoma M-1; experiment: Growth of graft sarcoma M-1 in rats; type: in vivo; conditions: rats, 85 mg/kg per os, 6 injections, one experiment
Description: as §1, §5, §2

[6] = test system: Ienssen's sarcoma; experiment: Growth of graft Ienssen sarcoma in rats; type: in vivo
Description: as §1, §5, §2

[7] = Solubility; type: physicochemical
Description: as §2
To a mixture of 3 g of N^1,N^2 -dispirotripiperazinium dichloride, 1.5 g of lithium hydroxide, 1 ml of water and 10 ml of ether a solution of 5.2 g of β-bromopropionic acid chlorid in 5 ml of ether is added under vigorous stirring and at a temperature of 5° to 10° C. The reaction mass is stirred for 2 hours at the temperature of 15° C. The residue is filtered off, dissolved in 10 ml of water; the resulting aqueous solution is poured in 100 ml of methanol.

[8] = Withdrawal of radioactivity from the rats' organism; type: in vivo; design: concentration or dose not given beside the values; conditions: 24 hours after intravenous administration, C^14-labeled
Description: (§6) In the case of administration of the preparation according to the present invention labeled with C^14, a higher level of radioactivity in blood is observed than in the case of prospidin labeled with C^14. A higher rate of accumulation of the preparation according to the present invention as compared to prospidin is observed in larynx, windpipe, bronchi, bone marrow, tumor and thyroid gland. The preparation according to the present invention labeled with C^14 is withdrawn from the organism within 24 hours after the intravenous administration mainly with urine, while C^14 --labeled prospidin is retained in the organism for a longer period.

[9] = test system: leukemia P-388; experiment: Life span of mice with transplantable leukemia P-388; type: in vivo, inbred mice; conditions: mice with transplantable leukemia P-388
Description: as §1, §3, §4

[10] = test system: sarcoma 45; experiment: Growth of graft sarcoma 45 in rats; type: in vivo; conditions: rats
Description: as §1, §5, §2

[11] = test system: leukemia L1210; experiment: Life span of mice with transplantable leukemia L1210; type: in vivo, inbred mice; conditions: mice with transplantable leukemia L1210
Description: as §1, §3, §4

[12] = test system: transplantable leukemia; experiment: Activity relative to leukoses of inbred mice (overall); type: in vivo
Description: (2) activity of the compounds relative to leukoses of inbred mice;
as §1, §3, §4

[13] = Distribution of C^14-labeled preparation within organs and tissues of rats with sarcoma M-1; type: in vivo; conditions: rats with sarcoma M-1, intravenous
Description: Furthermore, the particular distribution of the preparation according to the present invention within organs and tissues should also be noted.
as §6

[14] = mice, single intraperitoneal administration
[15] = ip, mice, single intraperitoneal administration
[16] = rats, per os, 145 mg/kg, 7 injections

In the case of `CN(C)c1nc(NP(=O)(N2CC2)N2CC2)c2c(ncn2C)n1` [Phopurine, 2-dimethylamino-6-diethyleneimido-phosphamido-7-methylpurine, reference compound], the “slowing of the growth of sarcoma 180” value ([1]; dose not given) is reported as 36%, the “tumor growth suppression class, Sarcoma 180” value ([1]; mice) is reported as “+ (tumor growth suppression by 60-80%)” and the “It, % index of suppression of leukosis development” value (shortened to “It, % index”) [2] is reported as 204%. The “Life span” value [2] was 22.5 ± 3.4 days, the “Ik index of toxic effect cumulation” value ([3]; mice) was 12 and the “DL95 (absolutely lethal dose)” value [3, 14] was 430 mg/kg. The LD50 [3, 15] was 280 mg/kg, the MTD ([3]; ip, repeated intraperitoneal administration) was 120 mg/kg and the “effect on the growth of sarcoma 536” value ([4]; dose not given) was “does not affect the growth”. The “tumor growth suppression class, Sarcoma 536” value [4] was 0.

With `O=C(CCBr)N1CC[N+]2(CC1)CC[N+]1(CCN(C(=O)CCBr)CC1)CC2` [Compound 3] the “suppression of sarcoma 180 growth” value ([1]; mice, per os, at MTD (dose not given)) was 35, the “Change in the animal body weight, test” value [5] was “+1 g” and the MTD ([3]; po, repeated administration, suspension per os) was 83 mg/kg. For the same molecule, the “It, % tumor growth suppression index” value ([6]; rats, 83 mg/kg per os (MTD), 7 injections, one experiment) was 50%, the “Change in the animal body weight, test” value ([6]; rats, 83 mg/kg per os, 7 injections, one experiment) was -7 g and the solubility in water [7] was “sparingly soluble”.

With `OC(CCl)CN1CC[N+]2(CC1)CC[N+]1(CCN(CC(O)CCl)CC1)CC2` (stereo not drawn) [Prospidin, 3,12-diaza-6,9-diazaniumdispiro-[5,2,5,2]-hexadecane-3,12-bis-(3-chloro-2-hydroxypropyl)-dichloride, reference compound] the “Withdrawal of radioactivity, Feces” value [8] was 7.0%, the “Withdrawal of radioactivity, Total” value [8] was 75.0% and the “Withdrawal of radioactivity, Urina” value [8] was 68.0%. The “It, % index” value [9] was 50%, the “Life span” value [9] was 14.8 ± 0.3 days and the “tumor growth suppression class, Sarcoma 180” value ([1]; mice) was “++ (tumor growth suppression by 80-95%)”. For the same molecule, the “It, % index” value [2] was 0%, the “Life span” value [2] was 6.6 ± 0 days and the “tumor growth suppression class, Sarcoma 45” value [10] was “++ (tumor growth suppression by 80-95%)”. The “Ik index of toxic effect cumulation” value ([3]; mice) was 58, the “DL95 (absolutely lethal dose)” value ([3]; mice, repeated intraperitoneal administration (once a day, daily for 7 days)) was 250 mg/kg and the “DL50 (average lethal dose)” value [3, 14] was 1,000 mg/kg. The “DL95 (absolutely lethal dose)” value [3, 14] was 1200 mg/kg, the LD50 [3, 15] was 1000 mg/kg and the “tumor growth suppression class, Sarcoma 536” value [4] was “++ (tumor growth suppression by 80-95%)”. For the same molecule, the “It, % index” value [11] was 0%, the “Life span” value [11] was 8.1 ± 0.1 days and the “effect on transplantable leukemia in mice” value [12] was “does not affect the development of leukemiae; also recorded: does not provide any effect”. For the same molecule, the “Ch/T chemotherapeutical index (ratio of MTD to minimum effective dose)” value ([6]; Ienssen sarcoma) was 27, the “Change in the bodyweight of animals, test” value [6, 16] was -9 g and the “It, %” value [6, 16] was “+30%”. For the same molecule, the “Coefficient of differential accumulation, Blood” value ([13]; 15 min) was 0.4, the “Coefficient of differential accumulation, Bone marrow” value ([13]; 15 min) was 0.8 and the “Coefficient of differential accumulation, Bronchi” value ([13]; 15 min) was 2.16. For the same molecule, the “Coefficient of differential accumulation, Hypophysis” value ([13]; 15 min) was 2.4, the “Coefficient of differential accumulation, Kidneys” value ([13]; 15 min) was 3.34 and the “Coefficient of differential accumulation, Larynx” value ([13]; 15 min) was 0.42. The “Coefficient of differential accumulation, Liver” value ([13]; 15 min) was 1.43, the “Coefficient of differential accumulation, Lungs” value ([13]; 15 min) was 1.54 and the “Coefficient of differential accumulation, Lymphonodes” value ([13]; 15 min) was 0.57. For the same molecule, the “Coefficient of differential accumulation, Spleen” value ([13]; 15 min) was 0.43, the “Coefficient of differential accumulation, Thymus gland” value ([13]; 15 min) was 0.16 and the “Coefficient of differential accumulation, Tumor” value ([13]; 15 min) was 0.65. The “Coefficient of differential accumulation, Tyroid gland” value ([13]; 15 min) was 1.2, the “Coefficient of differential accumulation, Windpipe” value ([13]; 15 min) was 0.38 and the “Coefficient of differential accumulation, Blood” value ([13]; 30 min) was 0.1. The “Coefficient of differential accumulation, Bone marrow” value ([13]; 30 min) was 0.6, the “Coefficient of differential accumulation, Bronchi” value ([13]; 30 min) was 0.82 and the “Coefficient of differential accumulation, Hypophysis” value ([13]; 30 min) was 1.65. For the same molecule, the “Coefficient of differential accumulation, Kidneys” value ([13]; 30 min) was 0.67, the “Coefficient of differential accumulation, Larynx” value ([13]; 30 min) was 0.32 and the “Coefficient of differential accumulation, Liver” value ([13]; 30 min) was 0.75. For the same molecule, the “Coefficient of differential accumulation, Lungs” value ([13]; 30 min) was 0.45, the “Coefficient of differential accumulation, Lymphonodes” value ([13]; 30 min) was 0.48 and the “Coefficient of differential accumulation, Spleen” value ([13]; 30 min) was 0.21. The “Coefficient of differential accumulation, Thymus gland” value ([13]; 30 min) was 0.06, the “Coefficient of differential accumulation, Tumor” value ([13]; 30 min) was 0.37 and the “Coefficient of differential accumulation, Tyroid gland” value ([13]; 30 min) was 1.06. For the same molecule, the “Coefficient of differential accumulation, Windpipe” value ([13]; 30 min) was 0.21, the “Coefficient of differential accumulation, Blood” value ([13]; 60 min) was 0.07 and the “Coefficient of differential accumulation, Bone marrow” value ([13]; 60 min) was 0.52. The “Coefficient of differential accumulation, Bronchi” value ([13]; 60 min) was 0.5, the “Coefficient of differential accumulation, Hypophysis” value ([13]; 60 min) was 1.47 and the “Coefficient of differential accumulation, Kidneys” value ([13]; 60 min) was 0.56. For the same molecule, the “Coefficient of differential accumulation, Larynx” value ([13]; 60 min) was 0.14, the “Coefficient of differential accumulation, Liver” value ([13]; 60 min) was 0.67 and the “Coefficient of differential accumulation, Lungs” value ([13]; 60 min) was 0.2. The “Coefficient of differential accumulation, Lymphonodes” value ([13]; 60 min) was 0.14, the “Coefficient of differential accumulation, Spleen” value ([13]; 60 min) was 0.11 and the “Coefficient of differential accumulation, Thymus gland” value ([13]; 60 min) was 0.05. The “Coefficient of differential accumulation, Tumor” value ([13]; 60 min) was 0.3, the “Coefficient of differential accumulation, Tyroid gland” value ([13]; 60 min) was 0.75 and the “Coefficient of differential accumulation, Windpipe” value ([13]; 60 min) was 0.1. The “Coefficient of differential accumulation, Blood” value ([13]; 24 hours) was 0.01, the “Coefficient of differential accumulation, Bone marrow” value ([13]; 24 hours) was 0.18 and the “Coefficient of differential accumulation, Bronchi” value ([13]; 24 hours) was 0.25. For the same molecule, the “Coefficient of differential accumulation, Hypophysis” value ([13]; 24 hours) was 0.55, the “Coefficient of differential accumulation, Kidneys” value ([13]; 24 hours) was 0.15 and the “Coefficient of differential accumulation, Larynx” value ([13]; 24 hours) was 0.05. For the same molecule, the “Coefficient of differential accumulation, Liver” value ([13]; 24 hours) was 0.13, the “Coefficient of differential accumulation, Lungs” value ([13]; 24 hours) was 0.06 and the “Coefficient of differential accumulation, Lymphonodes” value ([13]; 24 hours) was 0.04. The “Coefficient of differential accumulation, Spleen” value ([13]; 24 hours) was 0.06, the “Coefficient of differential accumulation, Thymus gland” value ([13]; 24 hours) was 0.02 and the “Coefficient of differential accumulation, Tumor” value ([13]; 24 hours) was 0.07. The “Coefficient of differential accumulation, Tyroid gland” value ([13]; 24 hours) was 0.22 and the “Coefficient of differential accumulation, Windpipe” value ([13]; 24 hours) was 0.07.
